From PubChem BioAssay (NCI)
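Cultured in 96-well plates, cells were exposed to test compound for 48 hours across five concentrations. GI50: concentration for 50% inhibition of growth. TGI: total growth inhibition.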

Assays:
Assay in all cases: inhibition of tumour cell growth, NCI panel, 48 h
SK-OV-3 ovarian = test system: SK-OV-3 ovarian
RPMI-8226 leukemia = test system: RPMI-8226 leukemia
CCRF-CEM leukemia = test system: CCRF-CEM leukemia
ACHN renal = test system: ACHN renal
HCC-2998 colon = test system: HCC-2998 colon
SF-268 CNS = test system: SF-268 CNS
HT29 colon = test system: HT29 colon
SW-620 colon = test system: SW-620 colon
MDA-MB-231 breast = test system: MDA-MB-231 breast
MOLT-4 leukemia = test system: MOLT-4 leukemia

| SMILES | GI50 (SK-OV-3 ovarian) | TGI (SK-OV-3 ovarian) | GI50 (RPMI-8226 leukemia) | TGI (RPMI-8226 leukemia) | GI50 (CCRF-CEM leukemia) | TGI (CCRF-CEM leukemia) | GI50 (ACHN renal) | TGI (ACHN renal) | GI50 (HCC-2998 colon) | TGI (HCC-2998 colon) | GI50 (SF-268 CNS) | TGI (SF-268 CNS) | GI50 (HT29 colon) | TGI (HT29 colon) | GI50 (SW-620 colon) | TGI (SW-620 colon) | GI50 (MDA-MB-231 breast) | TGI (MDA-MB-231 breast) | GI50 (MOLT-4 leukemia) | TGI (MOLT-4 leukemia) |
| --- | --- | --- | --- | --- | --- | --- | --- | --- | --- | --- | --- | --- | --- | --- | --- | --- | --- | --- | --- | --- |
| COC(=O)[C@H](Cc1ccc(O)cc1)NC(=O)[C@@H](OC)[C@@H]1Cc2cc3cc(OC4CC(OC5CC(O)C(O)C(C)O5)C(O)C(C)O4)c(C)c(O)c3c(O)c2C(=O)[C@H]1OC1CC(OC2CC(OC3CC(C)(O)C(O)C(C)O3)C(O)C(C)O2)C(O)C(C)O1 (stereo not given in full) | 0.185 µM | > 25 µM | 0.0417 µM | 2.02 µM | 0.111 µM | > 25 µM | 0.405 µM | > 25 µM | 0.172 µM | 0.758 µM | 0.199 µM | > 25 µM | 0.102 µM | > 25 µM | 0.0902 µM | > 25 µM | 0.196 µM | > 25 µM | 0.126 µM | > 25 µM |
| CCCCCCc1nc2nc(Cl)c(Cl)nc2[nH]1 | > 100 µM | > 100 µM | 2.66 µM | > 100 µM | 5.8 µM | > 100 µM | 6.94 µM | > 100 µM | > 100 µM | > 100 µM | > 100 µM | > 100 µM | > 100 µM | > 100 µM | > 100 µM | > 100 µM | 35.9 µM | > 100 µM | 5.21 µM | > 100 µM |
